These results are taken from the NIST ThermoML archive (doi:10.1021/acs.jced.6b00334).

Data set [1] is described as follows: Solid-liquid equilibrium temperature. The conditions noted are these: 101 kPa; Crystal; DTA.
A short description of data set [2]: Molar enthalpy of transition or fusion. The conditions noted are these: Crystal; DSC.

± gives the expanded uncertainty stated by the source.

On to `CCc1ccc2c(c1)C(=O)c1ccccc1C2=O` [2-ethyl-9,10-anthracenedione], for which the Solid-liquid equilibrium temperature in data set [1] turned out to be 384.15 ± 0.25 K. Also, the “Molar enthalpy of transition or fusion” value in data set [2] turned out to be 4.49 ± 1.2 kcal/mol.
